# Laboratory results as given in US20250082651A1, “GANAXOLONE FOR USE IN TREATING GENETIC EPILEPTIC DISORDERS” (Marinus Pharmaceuticals, Inc., priority 2017, published 2025).
# Where “and” joins values, the source holds several entries; their conditions need not be identical. Identical values can stand only once. Entries after “also recorded” stand apart in the source; their conditions may differ.
# Assays:
# [1] = test system: children with CDKL5 Deficiency Disorder; assay: Phase 2 open-label trial, CDKL5 (CDD) cohort, seizure efficacy; type: in vivo, human
# Excerpt: Example 3 concerns a Phase 2 Multicenter, Open-Label Proof-of-Concept Trial of ganaxolone (GNX) in cohorts of children having genetic epilepsies (PCDH19, CDKL5 LGS, and CSWS) (ClinicalTrials.gov Identifier: NCT02358538). There were 11 female children with PCDH19 epilepsy between 5-16 years old with a confirmed genetic mutation. There were 6 female and 1 male children with confirmed genetic mutations in the CDKL5 cohort. There were 10 children in the Lennox Gastaut Syndrome cohort. Two children with CSWS were enrolled into the study. The study was conducted with 12 weeks baseline, and up to 26 weeks of treatment followed by a 52 week open label treatment. The primary efficacy was the percentage change in seizure frequency per 28 days relative to baseline calculated using daily seizure diary. [Time Frame: 26 weeks]. Secondary Outcome Measures were: Clinician Global Impression of Change score as assessed by questionnaire. [Time Frame: 26 Weeks]; Patient Global Impression of Change score as assessed by questionnaire. [Time Frame: 26 Weeks]; Evaluation of safety and tolerability of open-label ganaxolone as adjunctive therapy for uncontrolled seizures in children with rare genetic epilepsies, based on adverse event log and other clinical safety assessments. [Time Frame: 26 weeks]; Responder rates [Time Frame: 26 weeks]; and Seizure free days [Time Frame: 26 weeks].
# Following screening and baseline evaluations, consenting patients enrolled into a 26-week study during which investigators were allowed to flexibly dose ganaxolone up to a dose of 1,800 mg/day for patients whose body weight was >30 kg, or up to 63 mg/kg/day for patients whose body-weight was <30 kg. The primary efficacy measure is % change from baseline in the 28-day seizure frequency count. Safety and tolerability were within the secondary objectives of the study.
# In this study, oral ganaxolone suspension or capsules were administered up to a total of 63 mg/kg/day (maximum 1800 mg/day) over 2-4 weeks. About six-eight titration steps are used, depending on the size of the patient. Children larger than 30 kg may take the ganaxolone capsules. The ganaxolone oral suspension was administered through an oral dosing syringe three times daily. The ganaxolone capsules were administered twice daily. The patients experience better absorption of the ganaxolone with meals (milk).
# After establishing baseline seizure frequency, qualifying subjects entered the study and were treated with open-label ganaxolone oral suspension or ganaxolone capsules at doses up to a maximum of 1800 mg/day for up to 6 months. Maximum study participation was 94 weeks: a screening period up to 12 weeks to establish baseline seizure frequency, up to 26 weeks of treatment, a 52 week extension for subjects who benefited from ganaxolone treatment, and up to 4 weeks of down titration period. […] Refractive cases of LGS or CSWS that had prior response to steroid or ACTH could also have been enrolled.
# Ganaxolone oral suspension was administered through an oral dosing syringe by parent or legal guardian 3 times daily (TID), following the morning, noon, and evening meal or snack. Each dose was separated by a minimum of 4 hours and a maximum of 8 hours. A missed dose of ganaxolone could have been taken up to 4 hours before the next scheduled dose; otherwise, the missed dose was not to be given.
# Ganaxolone capsules were administered with a glass of water or other liquid 2 times daily (BID), following the morning and evening meal or snack. Ganaxolone was provided as either an oral suspension or capsules based on the subject's weight at study entry. Ganaxolone oral suspension was administered through an oral dosing syringe TID by a parent or guardian, following the morning, midday, and evening meal or snack. Each dose was separated by a minimum of 4 hours and a maximum of 8 hours. Ganaxolone capsules were administered BID, following the morning and evening meal or snack. […]
# dogs = assay: 1-year (chronic oral) dog toxicity study; type: in vivo
# Excerpt: There was a physiologically normal shortening of the PR and QT interval in response to the higher heart rate. There was no effect on QRS duration or QTc interval.
# In the oral dosing programme, a therapeutic index from non-human NOAEL levels to the adult partial-onset seizure epilepsy and the pharmacokinetics study is approximately 2 to 3-fold in dogs (sedation).
smiles,measurement,setting,value
"CC(=O)[C@H]1CC[C@H]2[C@@H]3CC[C@H]4C[C@](C)(O)CC[C@]4(C)[C@H]3CC[C@]12C [Ganaxolone, 3α-hydroxy-3β-methyl-5α-pregnan-20-one]","Improvement in seizure free days, individual patients",[1]; 2 out of 4 completed CDKL5 patients,78% and 368%
same,Patients with >50% reduction in seizure counts,[1]; 4 completed CDKL5 patients,3 out of 4
same,Patients with increase/improvement in seizure-free days,[1]; 7 CDKL5 patients,Four of the 7; also recorded: Five of the 7
same,Mean percent change in 28-day total seizure frequency from baseline to Week 26,"[1]; CDD cohort, PP Population",20.55%
same,Median percent change in 28-day total seizure frequency from baseline to Week 26,"[1]; CDD cohort, PP Population",37.70%
same,Clinical global impression of improvement: much improved,"[1]; CDD cohort, end of Week 26",3 subjects
same,Clinical global impression of improvement: very much improved,"[1]; CDD cohort, end of Week 26",0 subjects
same,Overall responder rate,"[1]; CDKL5, 3 months (3/7 subjects)",43%
same,Overall responder rate,"[1]; CDKL5, 6 months (2/6 subjects)",33%
same,"28-day seizure frequency, sum of individual seizures and clusters, post-baseline 26-week open-label period, Mean (SD)","[1]; CDKL5 N=7, MITT",137.70
same,"28-day seizure frequency, sum of individual seizures and clusters, post-baseline 26-week open-label period, Median","[1]; CDKL5 N=7, MITT",67.29
same,"28-day seizure frequency, sum of individual seizures and clusters, post-baseline through Month 3 (Day 91), Mean (SD)","[1]; CDKL5 N=7, MITT",129.78
same,"28-day seizure frequency, sum of individual seizures and clusters, post-baseline through Month 3 (Day 91), Median","[1]; CDKL5 N=7, MITT",55.69
same,"Percent change from baseline (at Day 91), 28-day seizure frequency, sum of individual seizures and clusters, Mean (SD)","[1]; CDKL5 N=7, MITT",31.23% and −31.23%
same,"Percent change from baseline (at Day 91), 28-day seizure frequency, sum of individual seizures and clusters, Median","[1]; CDKL5 N=7, MITT",47.34% and −47.34%
same,"Percent change from baseline (at Week 26), 28-day seizure frequency, sum of individual seizures and clusters, Mean (SD)","[1]; CDKL5 N=7, MITT",20.55% and −20.55%
same,"Percent change from baseline (at Week 26), 28-day seizure frequency, sum of individual seizures and clusters, Median","[1]; CDKL5 N=7, MITT",37.70% and −37.70%
same,"% change seizure rate-12 month, Mean","[1]; CDKL5 cohort, N=3",−56.12%
same,"% change seizure rate-12 month, Median","[1]; CDKL5 cohort, N=3",−47.79%
same,"Post-baseline 28-day seizure rate-12 month, Mean","[1]; CDKL5 cohort, N=3",114.39
same,"Post-baseline 28-day seizure rate-12 month, Median","[1]; CDKL5 cohort, N=3",76.54
same,"% change seizure rate-3 month, Mean","[1]; CDKL5 cohort, N=7",−32.67%
same,"% change seizure rate-3 month, Median","[1]; CDKL5 cohort, N=7",−49.99%
same,"% change seizure rate-6 month, Mean","[1]; CDKL5 cohort, N=7",−16.81%
same,"% change seizure rate-6 month, Median","[1]; CDKL5 cohort, N=7",−47.80%
same,"Post-baseline 28-day seizure rate-3-month, Mean","[1]; CDKL5 cohort, N=7",821.16
same,"Post-baseline 28-day seizure rate-3-month, Median","[1]; CDKL5 cohort, N=7",57.87
same,"Post-baseline 28-day seizure rate-6 month, Mean","[1]; CDKL5 cohort, N=7",1373.85
same,"Post-baseline 28-day seizure rate-6 month, Median","[1]; CDKL5 cohort, N=7",67.29
same,"28-day individual seizure frequency, post-baseline 26-Week open-label period, Mean (SD)","[1]; CDKL5 n=7, MITT",103.70
same,"28-day individual seizure frequency, post-baseline 26-Week open-label period, Median","[1]; CDKL5 n=7, MITT",67.29
same,"28-day individual seizure frequency, post-baseline through Month 3 (Day 91), Mean (SD)","[1]; CDKL5 n=7, MITT",103.69
same,"28-day individual seizure frequency, post-baseline through Month 3 (Day 91), Median","[1]; CDKL5 n=7, MITT",53.82
same,"Percent change from baseline (at Day 91), 28-day individual seizure frequency, Mean (SD)","[1]; CDKL5 n=7, MITT",−30.33%
same,"Percent change from baseline (at Day 91), 28-day individual seizure frequency, Median","[1]; CDKL5 n=7, MITT",−46.64%
same,"Percent change from baseline (at Week 26), 28-day individual seizure frequency, Mean (SD)","[1]; CDKL5 n=7, MITT",−21.06%
same,"Percent change from baseline (at Week 26), 28-day individual seizure frequency, Median","[1]; CDKL5 n=7, MITT",−38.10%
same,Median percent reduction in seizures,[1]; children with CDKL5 disorder,43%
same,"Reduction in seizure counts, individual patients",[1]; completed CDKL5 patients with >50% reduction,52% and 59% and 88%
same,Patients with improvement in seizure control that persists for up to 6 months,"[1]; first 6 CDKL5 patients, preliminary",3 of 6
same,Effect on QRS duration or QTc,dogs; 1-year dog study,no treatment effect
same,ECG finding,"dogs; 1-year dog study, after 3 months of dosing, 4 animals, >190 bpm",transient sinus tachycardia
same,Cmax,dogs; 1-year dog toxicity study,> 1500 ng/mL
same,Findings at mean Cmax greater than 1500 ng/mL,"dogs; chronic oral toxicity study in dogs, 10 and 15 mg/kg/day",increased weight and total plasma cholesterol levels
same,Therapeutic index from non-human NOAEL levels,"dogs; oral dosing programme, dogs (sedation)",2 to 3 fold
